Measured values published in US7037896B1, “Peptide (VIRIP) which inhibits a circulating virus in humans and the use thereof” (priority 1999, dated 2006).

Experiments:
blood cells = experiment: Cytotoxic effect on the blood cells
R5-tropic 92TH isolate = experiment: Dose-dependent inhibition of infection of P4R5 indicator cells, 92TH isolate; assay type: cell-based, HIV-1
Experimental: (§1) P4R5 indicator cells were infected in the presence of the shown concentrations of VIRIP, and the β-galactosidase activity was measured in the cell extract 2 days after the infection.
(§2) In order to quantify the inhibitory effect of the substance according to the invention more precisely, P4R5 indicator cells were infected with the X4-tropic HIV-1 P59S isolate and the R5-tropic 92TH isolate in the presence of different doses of VIRIP.

R5-tropic forms = experiment: Replication of HIV isolates in human PBMC (RT activity), R5-tropic forms; assay type: cell-based; conditions: compared with X4-tropic and dual-tropic variants
Experimental: (§3) FIG. 5: VIRIP inhibits the replication of various HIV isolates with different cell- and co-receptor-tropisms in human PBMC. Prestimulated PBMC were treated with the various HIV-1 isolates (10 ng of p27 antigen) or a chimeric onco-lentivirus (Mu-HIV) in the presence of the VIRIP concentrations shown. Viral replication was determined by measuring the reverse transcriptase activity in the cell culture supernatant.
(§4) The inhibitory effects on R5-tropic forms were lesser. A chimeric onco-lentivirus (Mu-HIV) carrying the MLV envelope protein was not inhibited (FIG. 5, bottom).

[1] = system: R5-tropic HIV-1 NL4-3 V3 variants; experiment: Infection of P4R5 indicator cells with NL4-3 V3 recombinants, R5-tropic variants; assay type: cell-based; conditions: 50 ng of p24, luciferase test
Source text: (§5) FIG. 3: The V3 loop of the X4-tropic NL43 clone was exchanged for the corresponding sequences of the HIV-1 isolates shown. Thus, the recombinant viruses are distinguished exclusively in the V3 loop. In the right panel, the observed inhibitors effect (%), the overall charge of the V3 region and the co-receptor-tropism are shown. At the bottom, the consensus sequence (SEQ ID NO: 6) is shown.
(§6) The V3 loop of the X4-tropic NL4-3 clone was replaced by the corresponding region of a number of primary HIV-1 isolates. […] To determine the inhibitory influence of VIRIP on these variants, P4R5 indicator cells were examined. P4R5 cells express both CCR5 and CXCR4 and contain the luciferase gene under the control of HIV-1 LTR. This cell line was infected with the various recombinant viruses (50 ng of p24) in the presence and absence of VIRIP, and the infection was quantified using the luciferase test.

dual-tropic HIV variants = experiment: Replication of HIV isolates in human PBMC (RT activity), dual-tropic variants; assay type: cell-based
Experimental: as §3, §4

[2] = system: chimeric onco-lentivirus (Mu-HIV) carrying the MLV envelope protein; experiment: Replication of chimeric onco-lentivirus in human PBMC (RT activity); assay type: cell-based
Experimental: as §3, §4

HIV-1 NL43 = experiment: Replication of HIV-1 in human PBMCs (reverse transcriptase test in culture supernatant); assay type: cell-based
Experimental: FIG. 1: Purification of VIRIP. The purification steps are described in the text. (b) Inhibition of the replication of HIV-1 NL43 in human blood lymphocytes by fraction 1–20. The cells were stimulated with PHA for 2 days, infected with virus stocks containing 10 ng of p24, and the reverse transcriptase activity determined in the culture supernatant 9 days after the infection. The result of the infection experiments is shown.
The isolation of VIRIP was effected on the basis of its inhibitory action on the replication of HIV-1 in an assay which measures the replication of HIV-1 in human peripheral blood lymphocytes (PBMCs). Thus, aliquots of each of the individual chromatographic fractions described under Example 1 were freeze-dried and then subjected to the biological assay in amounts of from 10 ml up to 1 l of hemofiltrate equivalent. The respective fractions which gave a positive signal were subjected to further purification.
Human peripheral blood lymphocytes (PBMCs) were obtained from whole blood using density gradient centrifugation in Ficoll. The cells were prestimulated for two days (RPMI medium, 20% FKS, 100 U/ml IL-2, 5 μg/ml phytohemagglutinin [PHA]). Then, the PBMCs were sedimented by centrifugation at 1200 rpm for 5 min, taken up in PHA-free RPMI medium (20% FKS, 100 U/ml IL-2) and seeded in 96-well flat-bottomed plates in a volume of 80 μl in concentrations of about 150,000 cells per well.
On the following day, aliquots of the individual chromatographic steps described under Example 1 were supplied in amounts of from 10 ml up to 1 l of hemofiltrate equivalent. Thus, the freeze-dried chromatographic fractions were taken up in water and pipetted to the PBMCs in various concentrations in a total volume of 10 μl. After 2 hours of incubation at 37° C., the cells were infected by the addition of 10 μl of HIV-1 virus stock containing from 0.1 to 10 ng of p24 antigen. Subsequently, 50 μl of the culture medium was replaced every 2 days by fresh medium which additionally contained the corresponding peptide fractions. The production of HIV particles at different times (after 9, 12 and 18 days) from the infection of the cells was quantified in a reverse transcriptase (RT) test. The RT test measures the activity of reverse transcriptase in a cell-free culture supernatant, which is thus a measure of the production of viral particles and viral replication in the PBMC cultures. Alternatively, the viral production was determined in p24 antigen ELISA.

HIV-1 = conditions: three days after infection
Experimental: FIG. 2: Influence of synthetic VIRIP on the infection of CEMx174-SEAP indicator cells (left) and replication in human PBMCs (right). The cells were infected and cultured in the presence of the stated amounts of VIRIP. To determine the viral entry, the activity of the secreted alkaline phosphatase was determined in the culture supernatant of the CEMx174-SEAP cells three days after the infection.

[3] = system: X4/R5-tropic HIV-1 NL4-3 V3 variants; experiment: Infection of P4R5 indicator cells with NL4-3 V3 recombinants, X4/R5-tropic variants; assay type: cell-based; conditions: 50 ng of p24, luciferase test
Source text: as §5, §6

X4-tropic HIV variants = experiment: Replication of HIV isolates in human PBMC (RT activity), X4-tropic variants; assay type: cell-based
Experimental: as §3, §4

[4] = system: X4-tropic HIV-1 NL4-3 V3 variants; experiment: Infection of P4R5 indicator cells with NL4-3 V3 recombinants, X4-tropic variants; assay type: cell-based
Source text: as §5, §6

[5] = system: X4-tropic HIV-1 P59S isolate; experiment: Dose-dependent inhibition of infection of P4R5 indicator cells, P59S isolate; assay type: cell-based; conditions: 2 days after infection
Experimental: as §1, §2

For “LEAIPMSIPPEVKFNKPFVF [VIRIP, 20-amino-acid fragment (amino acids 353 to 372) of human alpha-1-antitrypsin, isolated from hemofiltrate and also chemically synthesized]”, the “cytotoxic effect on the blood cells” value (blood cells) was “does not exert any cytotoxic effect”, the “concentrations required for inhibiting the 92TH isolate relative to P59S” value (R5-tropic 92TH isolate) was “about twofold higher concentrations” and the “inhibitory effects on R5-tropic forms” value (R5-tropic forms) was “lesser”. The “inhibition of R5-tropic variants” value [1] was “inhibited”, the “suppression of replication of dual-tropic HIV variants” value (dual-tropic HIV variants; 100 μg/ml) was “at least partially” and the “suppression of replication of dual-tropic HIV variants” value (dual-tropic HIV variants; 1000 μg/ml) was “completely”. For the same sequence, the “inhibition of chimeric onco-lentivirus (Mu-HIV)” value [2] was “not inhibited”, the “inhibition of the replication of HIV-1 in PBMCs” value (shortened to “inhibition … in PBMCs”) (HIV-1 NL43; listed as VIRIP from hemofiltrate) was “effectively block” and the “inhibition … in PBMCs” value (HIV-1 NL43; listed as VIRIP purified from hemofiltrate) was “dose-dependent inhibition”. For the same sequence, the “inhibition … in PBMCs” value (HIV-1 NL43; listed as chemically synthesized VIRIP) was “dose-dependent inhibition”, the “inhibition … in PBMCs” value (HIV-1 NL43; listed as synthetically prepared VIRIP) was “dose-dependent suppression” and the “inhibition … in PBMCs” value (HIV-1 NL43; listed as synthetically prepared peptide) was “effectively block”. For the same sequence, the “inhibition of the HIV-1 infection of CEMx174-SEAP indicator cells” value (HIV-1) was “dose-dependent inhibition”, the “inhibition of X4/R5-tropic variants” value [3] was “inhibited” and the “suppression of replication of X4-tropic HIV variants” value (X4-tropic HIV variants; 100 μg/ml) was “at least partially”. The “suppression of replication of X4-tropic HIV variants” value (X4-tropic HIV variants; 1000 μg/ml) was “completely”, the “efficiency of inhibition of X4-tropic variants having a strongly positively charged V3 loop as compared with R5-tropic or dual-tropic isolates” value [4] was “inhibited more efficiently” and the “inhibition of X4-tropic variants” value ([4]; 50 ng of p24, luciferase test) was “inhibited”. For the same sequence, the “concentration inhibiting the HIV-1 P59S isolate by 50%” value [5] was 40 µg/mL and the “concentration inhibiting the HIV-1 P59S isolate by 90%” value [5] was 180 µg/mL.
